The results in this text go back to patent EP0880540B1, “17-BETA-CYCLOPROPYL(AMINO/OXY) 4-AZA STEROIDS AS ACTIVE INHIBITORS OF TESTOSTERONE 5-ALPHA-REDUCTASE AND C17-20-LYASE” (Aventis Pharmaceuticals Inc., priority 1996, dated 1997).

Assay [1] concerns the target T1, cynomolgus monkey C17,20 lyase (Macaca fascicularis, UniProt Q2XVA1).
T1 construct: microsomal preparations of the enzyme from testicular tissue; from tissue; host or cells: cynomolgus monkey testes, microsomes
T1 sequence (Q2XVA1 1-508): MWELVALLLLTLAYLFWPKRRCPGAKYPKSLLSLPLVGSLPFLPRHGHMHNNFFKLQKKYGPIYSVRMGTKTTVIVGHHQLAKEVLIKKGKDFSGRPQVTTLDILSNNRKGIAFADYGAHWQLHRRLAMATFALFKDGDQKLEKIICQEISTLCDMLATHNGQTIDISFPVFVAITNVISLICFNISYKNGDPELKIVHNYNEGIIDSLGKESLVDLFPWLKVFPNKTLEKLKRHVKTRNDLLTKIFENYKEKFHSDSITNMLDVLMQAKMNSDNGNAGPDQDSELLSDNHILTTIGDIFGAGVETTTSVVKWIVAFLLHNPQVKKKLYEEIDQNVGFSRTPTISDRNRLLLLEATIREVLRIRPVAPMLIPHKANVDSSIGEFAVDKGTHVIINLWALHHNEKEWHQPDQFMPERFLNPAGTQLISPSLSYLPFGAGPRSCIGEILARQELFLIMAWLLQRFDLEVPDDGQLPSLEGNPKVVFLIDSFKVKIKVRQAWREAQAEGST
Briefly: In vitro C17,20 lyase assay, testicular microsomes. Type of assay: biochemical. Particulars: mean of duplicates. On the procedure:
In vitro C17,20 lyase assays: Compounds were tested for inhibition of cynomolgus monkey C17,20 lyase in vitro using microsomal preparations of the enzyme from testicular tissue. Testes were removed from anesthetized animals and flash frozen in liquid nitrogen. Microsomes were isolated as described in Schatzman et al., Anal. Biochem. 175, 219-226 (1988). The compound to be tested was dissolved in dimethyl sulfoxide and diluted in 0.05 M potassium phosphate buffer, pH 7.4, to give the desired concentrations of test compound, in an amount which contributed 0.1% v/v DMSO to the total assay volume. Assays contained 0.05 M potassium phosphate buffer, pH 7.4, an NADPH regenerating system (1 mM NADPH, 5 mM glucose-6-phosphate, 1 IU/mL glucose-6-phosphate dehydrogenase), test compound, substrate and microsomal protein in a total volume of 0.2 mL. Control assays contained all components, including dimethyl sulfoxide, but not test ccmpound. All assays were performed in duplicate. The test compound was incubated with 20 to 62 µg/mL microsomal protein, buffer, and the NADPH regenerating system described above at 34°C for 0 or 40 minutes. Aliquots of 180 µL were then removed and assayed for enzyme activity by addition to 7-[^3H]-17α-hydroxypregnenolone (11.2 mCi/mmole; 0.2 µCi per assay) plus unlabeled 17α-hydroxypregnenolone dissolved in DMSO, contributing 2.5% v/v to the final assay mix, and phosphate buffer to give a total substrate concentration of 0.05 µM (=Km) per assay and subsequent incubation at 34°C for 6 minutes. Each assay was terminated by addition of 5 mL of chloroform:methanol (2:1). Carrier steroids representing substrates and produces (17α-hydroxypregnenolone, dehydroepiandrosterone, and androst-5-ene-3β,17β-diol) and 0.8 mL of distilled, deionized water were also added at this time. The steroids were extracted by the method of Moore and Wilson (Methods in Enzymol., eds. O. Malley, B.W. and Hardman, J.G. 36, 1975, pp. 466-474). The organic phase containing the steroids was evaporated using nitrogen gas, the residues dissolved in 18% tetrahydrofuran (v/v) in hexane, and the steroids were separated by HPLC on a Si60 (5 µm) column (250 x 4 mm) using a gradient of 18-22% tetrahydrofuran (v/v) in hexane. Radioactivity in the steroid peaks was measured using a Radiomatic® Model ES or Model A515 Flo-One® detector.
The enzyme activity for each assay was calculated from the percent conversion of substrate to products, and the results were expressed as percent inhibition of control. The following results were obtained, wherein the values indicated are the mean of duplicate determinations: Table 1: […]

Assay [2] addresses T2, cynomolgus monkey prostatic 5α-reductase (Macaca fascicularis, UniProt Q28892).
T2 construct: microsomal preparations of the 5α-reductase enzyme from laboratory animal prostate tissue; from tissue; host or cells: cynomolgus monkey prostate, microsomes
T2 sequence (Q28892 1-254): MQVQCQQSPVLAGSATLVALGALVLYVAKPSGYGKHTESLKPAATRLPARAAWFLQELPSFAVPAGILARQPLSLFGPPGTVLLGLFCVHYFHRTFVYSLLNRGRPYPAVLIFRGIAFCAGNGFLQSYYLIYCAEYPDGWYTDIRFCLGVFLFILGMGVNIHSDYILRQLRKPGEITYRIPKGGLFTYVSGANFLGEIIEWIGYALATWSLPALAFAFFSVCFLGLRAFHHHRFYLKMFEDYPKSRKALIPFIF
Put plainly: In vitro 5α-reductase assay, prostate microsomes. Type of assay: biochemical. Conditions: mean of duplicates. On the procedure:
In vitro 5α-reductase assays: The activity of the present compounds as inhibitors of steroid 5α-reductase was determined using microsomal preparations of the 5α-reductase enzyme from laboratory animal prostate tissue. Specifically, microsomes were isolated from cynomolgus monkey prostate tissue. Protein concentration of the microsomal preparations was determined prior to use of the samples. Individual assays of cynomolgus monkey prostatic 5α-reductase activity contained 0.1 M potassium phosphate-sodium citrate buffer, pH 5.6 1.0% (w/v) bovine serum albumin, […] sodium EDTA, 4 µg of microsomal protein, 1.0 mM NADPH, 5.0 mM glucose-6-phosphate, 1 IU/mL glucose-6-phosphate dehydrogenase, [1,2-^3H]-testosterone (0.15 µCi) plus unlabeled testosterone to yield 0.015 µM (Km = 0.015 µM to 0.091 µM in multiple determinations), and test compound which was dissolved in DMSO then diluted in 0.1 M potassium phosphate-sodium citrate buffer, pH 5.6, to yield a final assay concentration of 0.1% (v/v) DMSO. The same buffer and DMSO without test compound were used in control assays. Background radioactivity was determined from assays containing all components except enzyme. Assays were performed in duplicate. Microsomes, 0.1 M potassium phosphate-sodium citrate buffer, pH 5.6, and test compound were preincubated at 37°C. Aliquots of 180 µL were removed after 0 or 40 minutes of preincubation and added to […] of testosterone substrate suspended in 0.1 M potassium phosphate-sodium citrate buffer, pH 5.6, containing 10% (v/v) DMSO. Remaining enzyme activity was assayed for 10 minutes at 37°C in a Dubnoff shaker incubator.
The reactions were terminated by the addition of 5 mL CHCl3:methanol (2:1) and 0.9 mL water. Carrier steroids were added in the form of 2.5 µg each of testosterone, dihydrotestosterone, and 3,17-androstanediol. Steroid metabolites were then extracted according to the procedure of Moore and Wilson (Methods in Enzymol., O'Malley, B.W. and Hardman, J.G. eds., 36, 1975, pp. 466-474), the organic phase containing the steroids was evaporated using nitrogen gas, the residues were dissolved in 3% (v/v) isopropanol in hexane. The steroids were then separated by normal phase HPLC on a LiCrosorb® DIOL derivatized silica gel column (10 µm; 4 x 250 mm) with a 3% to 7.5% isopropanol in hexane gradient, followed by isocratic conditions of […] isopropanol in hexane. Radioactivity in the steroid peaks was measured using a Packard Radiomatic model HS Flo-One detector. When the compound were tested using the above procedures with cynomolgus monkey 5α-reductase, the following results were obtained: Table 2: […]

`C[C@]12CC[C@H]3[C@@H](CC=C4NC(=O)CC[C@@]43C)[C@@H]1CC[C@@H]2OC1CC1` (stereo in doubt) [MDL 103,496, 17β-Cyclopropyloxy-4-aza-androst-5-en-3-one]: the inhibition (in general, the percentage by which the read-out fell short of the control) at 0.1 µM came to 5% in assay [1] (preincubation 0 min), 26.6% in assay [1] (preincubation 40 min), 24.6% in assay [2] (preincubation 0 min) and 29.5% in assay [2] (preincubation 40 min). The inhibition at 1 µM in assay [1] (preincubation 0 min) turned out to be 29%; in assay [1] (preincubation 40 min), 62.2%; in assay [2] (preincubation 0 min) it was 86.2%; in assay [2] (preincubation 40 min), 86.7%. Also, the inhibition at 10 µM was determined as 39.2% in assay [1] (preincubation 0 min), 87.7% in assay [1] (preincubation 40 min), 99.6% in assay [2] (preincubation 0 min) and 99.4% in assay [2] (preincubation 40 min).
